# Source: paper PMC5556379 (Journal of medicinal chemistry, 2017)
# pKi: −log10 of the molar value.
# Tests used:
# hiCE = target: T1, hiCE (Homo sapiens, UniProt O00748); format: cell-based; details: U373MG cells expressing hiCE; irinotecan as substrate
# T1 sequence (O00748 27-559): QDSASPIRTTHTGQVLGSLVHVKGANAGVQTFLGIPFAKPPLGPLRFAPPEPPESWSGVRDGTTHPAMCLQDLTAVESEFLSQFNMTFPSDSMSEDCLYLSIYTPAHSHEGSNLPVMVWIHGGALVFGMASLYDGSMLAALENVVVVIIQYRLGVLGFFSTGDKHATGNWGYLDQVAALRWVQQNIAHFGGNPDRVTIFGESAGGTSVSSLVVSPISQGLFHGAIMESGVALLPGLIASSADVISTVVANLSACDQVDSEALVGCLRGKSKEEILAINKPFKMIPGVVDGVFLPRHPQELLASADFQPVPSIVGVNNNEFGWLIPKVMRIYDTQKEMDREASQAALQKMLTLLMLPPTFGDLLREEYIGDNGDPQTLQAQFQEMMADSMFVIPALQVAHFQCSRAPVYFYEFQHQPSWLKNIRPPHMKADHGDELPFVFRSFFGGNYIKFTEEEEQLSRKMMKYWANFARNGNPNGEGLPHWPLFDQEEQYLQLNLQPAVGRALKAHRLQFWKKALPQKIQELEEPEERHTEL
# hCE1 = target: T2, hCE1 (Homo sapiens, UniProt P23141); details: read-out: Ki with hCE1; cited from earlier work
# T2 sequence (P23141 18-567): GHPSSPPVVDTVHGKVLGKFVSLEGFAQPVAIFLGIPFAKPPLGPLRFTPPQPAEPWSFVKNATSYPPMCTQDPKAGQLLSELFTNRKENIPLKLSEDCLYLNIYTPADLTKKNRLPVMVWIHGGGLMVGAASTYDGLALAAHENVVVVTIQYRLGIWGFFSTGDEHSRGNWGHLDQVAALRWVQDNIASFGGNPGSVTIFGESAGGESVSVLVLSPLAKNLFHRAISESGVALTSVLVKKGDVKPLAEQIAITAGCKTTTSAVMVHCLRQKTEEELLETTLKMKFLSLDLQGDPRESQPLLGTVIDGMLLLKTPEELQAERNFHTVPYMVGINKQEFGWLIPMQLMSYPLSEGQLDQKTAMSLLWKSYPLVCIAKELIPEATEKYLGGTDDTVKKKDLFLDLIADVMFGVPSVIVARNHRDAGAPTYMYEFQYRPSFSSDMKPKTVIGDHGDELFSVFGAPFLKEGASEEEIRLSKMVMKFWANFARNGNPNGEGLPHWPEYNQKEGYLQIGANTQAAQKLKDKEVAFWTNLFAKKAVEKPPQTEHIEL
SMILES,inhibition of hiCE in cells (loss in 7-ethyl-10-hydroxycamptothecin production) (hiCE),pKi (hCE1)
"COc1ccc(N(C)C2=CC(=O)C(=O)c3ccccc32)cc1 [Compound 17, 4-((4-Methoxyphenyl)(methyl)amino)naphthalene-1,2-dione]",less than 23%,–
"Cc1ccc(N(C)C2=CC(=O)C(=O)c3ccccc32)cc1 [Compound 18, 4-((4-Methylphenyl)(methyl)amino)naphthalene-1,2-dione]",less than 23%,–
Cc1cccc2c3c(ccc12)C1=C(C(=O)C3=O)[C@@H](C)CO1 [dihydrotanshinone],–,6.40
